Measured values from ChEMBL document CHEMBL4425161, “1α,2α-Epoxy-3β-hydroxy oleanolic acid derivatives regulation of the metabolism, haemolysis and β-lactamase gene expression in vitro and their structure-microbicidal activity relationship” (2016).
≈ marks a conversion by molar mass, not a printed value. Calls of active or inactive are those of the source. The rule behind the calls is not given here.

Assays:
[1] = test system: Klebsiella pneumoniae; experiment: Antibacterial activity against Klebsiella pneumoniae ATCC BAA-1705 assessed as bacterial growth inhibition at 50 umol/L after 8 hrs by turbidimetric plate reader method; assay type: functional, organism-based
[2] = test system: Acinetobacter baumannii; experiment: Antibacterial activity against Acinetobacter baumannii ATCC BAA-1710D assessed as bacterial growth inhibition at 50 umol/L after 8 hrs by turbidimetric plate reader method; assay type: functional, organism-based
[3] = test system: Escherichia coli; experiment: Antibacterial activity against Escherichia coli ATCC 25922 assessed as bacterial growth inhibition at 50 umol/L after 8 hrs by turbidimetric plate reader method; assay type: functional, organism-based
[4] = test system: Bacillus subtilis; experiment: Antibacterial activity against Bacillus subtilis ATCC 6051 assessed as bacterial growth inhibition at 50 umol/L after 8 hrs by turbidimetric plate reader method; assay type: functional, organism-based
[5] = test system: Escherichia coli; experiment: Antibacterial activity against Escherichia coli ATCC 25922 assessed as bacterial growth inhibition after 8 hrs by turbidimetric plate reader method; assay type: functional; details: ATCC 25922, 8 h
[6] = test system: Bacillus subtilis; experiment: Antibacterial activity against Bacillus subtilis ATCC 6051 assessed as bacterial growth inhibition after 8 hrs by turbidimetric plate reader method; assay type: functional; details: ATCC 6051, 8 h
[7] = test system: Klebsiella pneumoniae; experiment: Antibacterial activity against Klebsiella pneumoniae ATCC BAA-1705 assessed as bacterial growth inhibition after 8 hrs by turbidimetric plate reader method; assay type: functional; details: ATCC BAA-1705, 8 h
[8] = test system: Acinetobacter baumannii; experiment: Antibacterial activity against Acinetobacter baumannii ATCC BAA-1710D assessed as bacterial growth inhibition after 8 hrs by turbidimetric plate reader method; assay type: functional

For `CO[C@H]1[C@@H]2O[C@@H]2[C@]2(C)[C@H]3CC=C4[C@@H]5CC(C)(C)CC[C@]5(C(=O)O)CC[C@@]4(C)[C@]3(C)CC[C@H]2C1(C)C`, the “growth inhibition (GI)” value [1] was “inactive”, the “growth inhibition (GI)” value [2] was “inactive” and the “growth inhibition (GI)” value [3] was “inactive”. The “growth inhibition (GI)” value [4] was “inactive”.

In the case of `CC1(C)S[C@@H]2[C@H](NC(=O)[C@H](N)c3ccccc3)C(=O)N2[C@H]1C(=O)O` [AMPICILLIN], the MBC [5] is reported as 1.8 µM (≈ 0.629 µg/mL).

Molecule `CN[C@@H]1[C@H](O[C@H]2[C@H](O[C@H]3[C@H](O)[C@@H](O)[C@H](N=C(N)N)[C@@H](O)[C@@H]3N=C(N)N)O[C@@H](C)[C@]2(O)C=O)O[C@@H](CO)[C@H](O)[C@H]1O` [STREPTOMYCIN] has an MBC [6] of 2.1 µM (≈ 1.22 µg/mL) and an MBC [7] of 1.3 µM (≈ 0.756 µg/mL).

Molecule `NC[C@H]1O[C@H](O[C@H]2[C@H](O)[C@@H](O[C@H]3O[C@H](CO)[C@@H](O)[C@H](N)[C@H]3O)[C@H](N)C[C@@H]2N)[C@H](O)[C@@H](O)[C@@H]1O` [KANAMYCIN] has an MBC [8] of 1.6 µM (≈ 0.775 µg/mL).
